Assay results taken from patent US5785948A, “Metal chelate forming peptides and use thereof represented by three amino acid sequences” (Nihon Medi-Physics Co., Ltd., priority 1994, dated 1998).
Where no end group is shown, it is not given here.

Experiments:
inflammation site = conditions: S. aureus inflammation rat
Procedure: Staphylococcus aureus 10^8 cells were suspended in 1 ml of physiological saline, and 100 μl of the suspension was intramuscularly administered to SD rats weighing about 220 g at the right calf. […] Thirty and 120 minutes after the peptide was injected, the animal was imaged with a gamma camera. Regions of interest were selected from the obtained image to determine a ratio T/B of the radioactivity in inflammation site (T) to the radioactivity in normal site (B).

Tumor cells HEp2 = assay: Imaging of tumor in HEp2 tumor-bearing nude mouse (gamma camera, organ radioactivity); assay type: in vivo, BALB/C nude mouse; conditions: twenty minutes after injection
Procedure: Tumor cells HEp2 (5×10^6 cells, Human Epidermoid Carcinoma; ATCC No. CCL 23) were suspended in 1.0 ml of medium (Minimum essential medium (Eagle's) with Earle's BSS, 90% fetal bovine serum, 10%), and 100 μl of the suspension was subcutaneously injected to BALB/C nude mouse (6 weeks age) at the body side. […] Five and 20 minutes after the injection, the animal was imaged with a gamma camera.
Immediately after the imaging, the animal was sacrificed and examined for the distribution of the radioactivity in each organ using NaI single channel analyzer to determine a ratio of the radioactivity in tumor site to the radioactivity in muscle site (T/B ratio).

## Tc-99m-KYCGGKTKPREQQYNSTYRVV-NH2
Inflammation site; i.v. tail vein, regions of interest of image, n=6
  T/B ratio (radioactivity in inflammation site to radioactivity in normal site): 3.26±0.18
Inflammation site; imaged 30 and 120 minutes after injection
  Imaging of inflammation site (gamma camera): clearly imaged

## Tc-99m-KYCAREPPTRTNAYWGQG (also: Tc-99m label) [Tc-99m-labeled peptide containing KYC at the N-terminus, for tumor imaging]
Tumor cells HEp2; i.v. tail vein, n=3
  T/B ratio (radioactivity in tumor site to radioactivity in muscle site): 4.50±0.71
Tumor cells HEp2
  Imaging of tumor site (gamma camera): clearly imaged
